Source: patent US20260285850A1, “SUBSTITUTED OXAZOLIDINONES AND IMIDAZOLINONES AS HERBICIDES” (FMC CORPORATION, priority 2023, published 2026)

Assays:
Format in all cases: in vivo
[1] = tested on: barnyardgrass (Echinochloa crus-galli); assay: Test A preemergence soil spray, visual injury rating 0-100; settings: 10 days
In short: (§1)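 Seeds sown in loam-sand blend got a preemergence directed soil spray, or emerged plants (2-10 cm, one- to two-leaf) got a postemergence spray, of compound in non-phytotoxic solvent with surfactant. After 10 days in greenhouse, injury rated visually versus untreated controls on a 0 (no effect) to 100 (complete control) scale.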

[2] = tested on: blackgrass (Alopecurus myosuroides); assay: as above; settings: 10 days
In short: as §1

[3] = tested on: corn (Zea mays); assay: as above; settings: 10 days
In short: as §1

[4] = tested on: green foxtail (Setaria viridis); assay: as above; settings: 10 days
In short: as §1

[5] = tested on: kochia (Bassia scoparia); assay: as above; settings: 10 days
In short: as §1

[6] = tested on: oat, wild (wild oat, Avena fatua); assay: as above; settings: 10 days
In short: as §1

[7] = tested on: palmer (palmer amaranth, palmer pigweed, Amaranthus palmeri); assay: as above; settings: 10 days
In short: as §1

[8] = tested on: ragweed (common ragweed, Ambrosia artemisiifolia); assay: as above; settings: 10 days
In short: as §1

[9] = tested on: ryegrass, Italian (italian ryegrass, Lolium multiflorum); assay: as above; settings: 10 days
In short: as §1

[10] = tested on: soybean (Glycine max); assay: as above; settings: 10 days
In short: as §1

[11] = tested on: wheat (Triticum aestivum); assay: as above; settings: 10 days
In short: as §1

[12] = tested on: barnyardgrass (Echinochloa crus-galli); assay: Test A postemergence application, visual injury rating 0-100
In short: as §1

[13] = tested on: blackgrass (Alopecurus myosuroides); assay: as above
In short: as §1

[14] = tested on: corn (Zea mays); assay: as above
In short: as §1

[15] = tested on: galium (catchweed bedstraw, Galium aparine); assay: as above; settings: Postemergence, 16 g ai/ha, greenhouse 10 days; 0 no effect, 100 complete control
In short: as §1

[16] = tested on: green foxtail (Setaria viridis); assay: as above
In short: as §1

[17] = tested on: horseweed (Erigeron canadensis); assay: as above
In short: as §1

[18] = tested on: kochia (Bassia scoparia); assay: as above
In short: as §1

[19] = tested on: oat, wild (wild oat, Avena fatua); assay: as above
In short: as §1

[20] = tested on: palmer (palmer amaranth, palmer pigweed, Amaranthus palmeri); assay: as above
In short: as §1

[21] = tested on: ragweed (common ragweed, Ambrosia artemisiifolia); assay: as above
In short: as §1

[22] = tested on: ryegrass, Italian (italian ryegrass, Lolium multiflorum); assay: as above
In short: as §1

[23] = tested on: soybean (Glycine max); assay: as above
In short: as §1

[24] = tested on: wheat (Triticum aestivum); assay: as above
In short: as §1

[25] = tested on: barnyardgrass (Echinochloa crusgalli); assay: Test B flooded paddy test, visual plant response rating 0-100; settings: 250 g ai/ha, Flood, applied to paddy water, evaluated after 13 days
In short: (§2)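 Paddy-water application: test compounds went directly into water flooded 3 cm above the soil surface, with plants at 2 leaves. After a 13-day greenhouse period, responses were judged by eye relative to controls; a dash marks an untested entry.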

[26] = tested on: ducksalad (Heteranthera limosa); assay: as above; settings: 250 g ai/ha, Flood, applied to paddy water, evaluated after 13 days
In short: as §2

[27] = tested on: rice (Oryza sativa); assay: as above; settings: 250 g ai/ha, Flood, applied to paddy water, evaluated after 13 days
In short: as §2

[28] = tested on: sedge, umbrella (small-flower umbrella sedge, Cyperus difformis); assay: as above; settings: 250 g ai/ha, Flood, applied to paddy water, evaluated after 13 days
In short: as §2

[29] = 62 g ai/ha, 0 = no effect, 100 = complete control
[30] = 62 g ai/ha, postemergence, 10 days, 0 = no effect, 100 = complete control
[31] = Postemergence, 16 g ai/ha, greenhouse 10 days, 0 no effect, 100 complete control

SMILES: CC1(C(=O)NC2CC=C(C(=O)NS(=O)(=O)C3CC3)C2)CN(c2cc(F)cc(F)c2)C(=O)O1 (racemic) [Compound 90]
- Barnyardgrass plant response rating ([1]; 16 g ai/ha, 0 to 100 scale): 0
- Barnyardgrass plant response rating (0-100) [1, 29]: 0
- Blackgrass plant response rating ([2]; 16 g ai/ha, 0 to 100 scale): 0
- Blackgrass plant response rating (0-100) [2, 29]: 0
- Corn plant response rating ([3]; 16 g ai/ha, 0 to 100 scale): 0
- Corn plant response rating (0-100) [3, 29]: 0
- Foxtail, Green plant response rating ([4]; 16 g ai/ha, 0 to 100 scale): 0
- Foxtail, Green plant response rating (0-100) [4, 29]: 10
- Kochia plant response rating ([5]; 16 g ai/ha, 0 to 100 scale): 0
- Kochia plant response rating (0-100) [5, 29]: 0
- Oat, Wild plant response rating ([6]; 16 g ai/ha, 0 to 100 scale): 0
- Oat, Wild plant response rating (0-100) [6, 29]: 0
- Pigweed, Palmer plant response rating ([7]; 16 g ai/ha, 0 to 100 scale): 10
- Pigweed, Palmer plant response rating (0-100) [7, 29]: 20
- Ragweed plant response rating ([8]; 16 g ai/ha, 0 to 100 scale): 0
- Ragweed plant response rating (0-100) [8, 29]: 0
- Ryegrass, Italian plant response rating ([9]; 16 g ai/ha, 0 to 100 scale): 0
- Ryegrass, Italian plant response rating (0-100) [9, 29]: 0
- Soybean plant response rating ([10]; 16 g ai/ha, 0 to 100 scale): 0
- Soybean plant response rating (0-100) [10, 29]: 10
- Wheat plant response rating ([11]; 16 g ai/ha, 0 to 100 scale): 0
- Wheat plant response rating (0-100) [11, 29]: 0
- Barnyardgrass plant response rating (0-100) [12, 30]: 90
- Barnyardgrass plant response rating (0 to 100 scale) [12, 31]: 30
- Blackgrass plant response rating (0-100) [13, 30]: 80
- Blackgrass plant response rating (0 to 100 scale) [13, 31]: 10
- Corn plant response rating (0-100) [14, 30]: 100
- Corn plant response rating (0 to 100 scale) [14, 31]: 30
- Galium plant response rating (0 to 100 scale) [15]: 40
- Foxtail, Green plant response rating (0-100) [16, 30]: 80
- Foxtail, Green plant response rating (0 to 100 scale) [16, 31]: 0
- Horseweed plant response rating (0-100) [17, 30]: 60
- Horseweed plant response rating (0 to 100 scale) [17, 31]: 0
- Kochia plant response rating (0-100) [18, 30]: 80
- Kochia plant response rating (0 to 100 scale) [18, 31]: 70
- Oat, Wild plant response rating (0-100) [19, 30]: 50
- Oat, Wild plant response rating (0 to 100 scale) [19, 31]: 20
- Pigweed, Palmer plant response rating (0-100) [20, 30]: 70
- Pigweed, Palmer plant response rating (0 to 100 scale) [20, 31]: 0
- Ragweed plant response rating (0-100) [21, 30]: 30
- Ragweed plant response rating (0 to 100 scale) [21, 31]: 0
- Ryegrass, Italian plant response rating (0-100) [22, 30]: 70
- Ryegrass, Italian plant response rating (0 to 100 scale) [22, 31]: 20
- Soybean plant response rating (0-100) [23, 30]: 40
- Soybean plant response rating (0 to 100 scale) [23, 31]: 30
- Wheat plant response rating (0-100) [24, 30]: 70
- Wheat plant response rating (0 to 100 scale) [24, 31]: 40
- Plant response rating, Barnyardgrass (0 to 100 scale, 0 is no effect and 100 is complete control) [25]: 0
- Plant response rating, Ducksalad (0 to 100 scale, 0 is no effect and 100 is complete control) [26]: 0
- Plant response rating, Rice (0 to 100 scale, 0 is no effect and 100 is complete control) [27]: 0
- Plant response rating, Sedge, Umbrella (0 to 100 scale, 0 is no effect and 100 is complete control) [28]: 0
